Entries after “also recorded” stand apart in the source; their conditions may differ.

15 substances from PMC4420714 (Peptides, 2015) can be followed below.

The target of assay [1] is T1, VPAC2-R (Homo sapiens, UniProt P41587).
T1 sequence (P41587 24-438): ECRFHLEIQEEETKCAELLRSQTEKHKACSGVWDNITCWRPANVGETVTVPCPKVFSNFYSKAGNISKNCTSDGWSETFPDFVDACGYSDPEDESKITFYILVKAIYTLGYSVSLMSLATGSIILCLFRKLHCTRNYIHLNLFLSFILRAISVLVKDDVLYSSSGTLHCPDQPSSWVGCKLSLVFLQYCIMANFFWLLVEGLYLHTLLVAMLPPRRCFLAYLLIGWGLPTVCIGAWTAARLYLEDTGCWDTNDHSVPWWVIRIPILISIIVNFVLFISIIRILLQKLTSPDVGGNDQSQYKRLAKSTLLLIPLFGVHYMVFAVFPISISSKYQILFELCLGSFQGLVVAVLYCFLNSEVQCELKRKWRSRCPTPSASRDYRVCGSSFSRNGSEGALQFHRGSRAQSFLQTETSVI
Briefly: Binding of 125I-PACAP27 to VPAC2-R/PANC-1 cells. Particulars: ratio of binding IC50, analog vs native parent peptide.

Assay [2] concerns the target T1, VPAC2-R. The assay can be described thus: [3H]cAMP generation in VPAC2-R/PANC-1 cells. It is filed as cell-based. The conditions noted are these: VPAC2-R/PANC-1 cells; relative to PACAP38; up to 1 µM.
The target in assay [3] is T2, VPAC1-R (Homo sapiens, UniProt P32241).
T2 sequence (P32241 31-457): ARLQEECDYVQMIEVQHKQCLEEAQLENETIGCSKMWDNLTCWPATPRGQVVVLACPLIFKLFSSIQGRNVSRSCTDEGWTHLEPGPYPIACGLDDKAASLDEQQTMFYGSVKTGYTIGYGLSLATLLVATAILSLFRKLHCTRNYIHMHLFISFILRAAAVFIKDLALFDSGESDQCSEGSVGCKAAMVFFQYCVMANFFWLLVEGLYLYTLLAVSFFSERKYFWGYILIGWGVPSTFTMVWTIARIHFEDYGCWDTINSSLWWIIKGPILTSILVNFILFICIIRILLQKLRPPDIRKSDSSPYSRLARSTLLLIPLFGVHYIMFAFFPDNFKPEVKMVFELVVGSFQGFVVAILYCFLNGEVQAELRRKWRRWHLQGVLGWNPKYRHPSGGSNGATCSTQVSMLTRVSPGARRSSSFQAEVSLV
Briefly: Binding of 125I-VIP to VPAC1-R/PANC-1 cells. Particulars: ratio of binding IC50, analog vs native parent peptide.

The target in assay [4] is T2, VPAC1-R. Briefly: [3H]cAMP generation in T47D cells. It is filed as cell-based. The conditions noted are these: for [3H]cAMP T47D % max (agonist class): relative to PACAP38, up to 1 µM.
Assay [5] addresses T2, VPAC1-R. Briefly: [3H]cAMP generation in VPAC1-R/PANC-1 cells. It is filed as cell-based. The conditions noted are these: VPAC1-R/PANC-1 cells; for [3H]cAMP VPAC1-R/PANC-1 % max (agonist class): relative to PACAP38, up to 1 µM.

As to “[Iac^1,Ala^16,17,D-Lys^38]PACAP38 [Peptide P29]”, the “decrease in affinity for VPAC2-R/PANC-1 cells compared to native PACAP38 (or PACAP27, VIP)” value in assay [1] is on record as 2-to-6 fold.

In the case of “[N-Ac-His^1,Ala^16,17,D-Lys^38]PACAP38 [Peptide P28]”, the “decrease in affinity for VPAC2-R/PANC-1 cells compared to native PACAP38 (or PACAP27, VIP)” value in assay [1] is given as 2-to-6 fold.

Turning to “[Pip^3,Aib^16,28,Ala^17,20,Lys^34,D-Lys^38]PACAP38 [Peptide P41]”, the “[3H]cAMP VPAC2-R/PANC-1 % max (agonist class)” value (shortened to “[3H]cAMP VPAC2-R/PANC-1 % max”) in assay [2] was “no agonist activity; also recorded: No Act”.

Consider [Pro^3]PACAP38 [Peptide P18], for which the “decrease in affinity for VPAC2-R/PANC-1 cells compared to native PACAP38 (or PACAP27, VIP)” value in assay [1] is 15–500 fold. Moreover, in assay [2], the “[3H]cAMP VPAC2-R/PANC-1 % max” value is reported as “Ag (1 µM, 26)”.

On to “[Pip^3,Aib^16,Ala^17]PACAP27 [Peptide P7]”, for which the “decrease in affinity for VPAC1-R/PANC-1 cells compared to native PACAP38 (or PACAP27, VIP)” value in assay [3] is reported as > 1,000 fold. In addition, the “[3H]cAMP T47D % max (agonist class)” value in assay [4] is “No Act”. In addition, the “[3H]cAMP VPAC1-R/PANC-1 % max (agonist class)” value in assay [5] is recorded as “no agonist activity; also recorded: No Act”. For the same substance, the “[3H]cAMP VPAC2-R/PANC-1 % max” value in assay [2] is on record as “no agonist activity; also recorded: No Act”.

On to [N-Ac-His^1,Pip^3]PACAP38 [Peptide P27], for which the “decrease in affinity for VPAC2-R/PANC-1 cells compared to native PACAP38 (or PACAP27, VIP)” value in assay [1] is 15–500 fold. The “[3H]cAMP VPAC2-R/PANC-1 % max” value in assay [2] was “Ag (1 µM, 18)”.

Take “[N-Ac-His^1,Pip^3,Aib^16,Ala^17]PACAP27 [Peptide P8]”: the “decrease in affinity for VPAC1-R/PANC-1 cells compared to native PACAP38 (or PACAP27, VIP)” value in assay [3] is recorded as > 1,000 fold. The “[3H]cAMP T47D % max (agonist class)” value in assay [4] is “No Act”. Further, in assay [5] (partial agonist maximum), the “[3H]cAMP VPAC1-R/PANC-1 % max of partial agonist” value is recorded as “pAg (24) % max”. In addition, the “[3H]cAMP VPAC1-R/PANC-1 % max (agonist class)” value in assay [5] is reported as “partial agonists; also recorded: pAg (24)”. Also, the “[3H]cAMP VPAC2-R/PANC-1 % max” value in assay [2] was “Ag (1 µM, 13)”.

[Hyp^3,Ala^16,17]PACAP38 [Peptide P20]: in assay [1], the “decrease in affinity for VPAC2-R/PANC-1 cells compared to native PACAP38 (or PACAP27, VIP)” value was 50–400 fold. The “[3H]cAMP VPAC2-R/PANC-1 % max” value in assay [2] is recorded as “Ag (1 µM, 35)”.

For the substance [Sar^3]PACAP38 [Peptide P19], the “decrease in affinity for VPAC2-R/PANC-1 cells compared to native PACAP38 (or PACAP27, VIP)” value in assay [1] is on record as 15–500 fold. In assay [2], the “[3H]cAMP VPAC2-R/PANC-1 % max” value is “Ag (1 µM, 35)”.

Consider “[Iaa^1,D-Ser^2,Ala^22]PACAP38 [Peptide P48]”, for which the “decrease in affinity for VPAC2-R/PANC-1 cells compared to native PACAP38 (or PACAP27, VIP)” value in assay [1] is listed as 50–400 fold. In assay [2], the “[3H]cAMP VPAC2-R/PANC-1 % max” value is on record as “Ag (1 µM, 43)”.

On to “[Ala^16,17,D-Lys^38]PACAP38 [Peptide P23]”, for which, in assay [1], the “decrease in affinity for VPAC2-R/PANC-1 cells compared to native PACAP38 (or PACAP27, VIP)” value is 2-to-6 fold.

As to “[Hyp^3,Aib^16,Ala^17,Lys^34]PACAP38 [Peptide P31]”, the “decrease in affinity for VPAC2-R/PANC-1 cells compared to native PACAP38 (or PACAP27, VIP)” value in assay [1] is recorded as 50–400 fold.

“[Pip^3,Aib^16,28,Ala^17,Lys^34,D-Lys^38]PACAP38 [Peptide P35]”: in assay [1], the “decrease in affinity for VPAC2-R/PANC-1 cells compared to native PACAP38 (or PACAP27, VIP)” value was 50–400 fold. The “[3H]cAMP VPAC2-R/PANC-1 % max” value in assay [2] is “Ag (1 µM, 33)”.

With [Pip^3]PACAP38 [Peptide P26], the “decrease in affinity for VPAC2-R/PANC-1 cells compared to native PACAP38 (or PACAP27, VIP)” value in assay [1] is 15–500 fold. For the same substance, the “[3H]cAMP VPAC2-R/PANC-1 % max” value in assay [2] is “no agonist activity; also recorded: No Act”.

For [Pro^3]PACAP27 [Peptide P5], in assay [1], the “decrease in affinity for VPAC2-R/PANC-1 cells compared to native PACAP38 (or PACAP27, VIP)” value was 6–132 fold. In addition, in assay [3], the “decrease in affinity for VPAC1-R/PANC-1 cells compared to native PACAP38 (or PACAP27, VIP)” value is recorded as 100–500 fold. In addition, the “[3H]cAMP T47D % max, agonist activity at 1 µM, still increasing” value in assay [4] (at 1 µM) is “Ag (1 µM, 16) % max”. Also, the “[3H]cAMP T47D % max (agonist class)” value in assay [4] was “Ag (1 µM, 16)”. In assay [5], the “[3H]cAMP VPAC1-R/PANC-1 % max (agonist class)” value is “Ag (1 µM, 23)”. For the same substance, the “[3H]cAMP VPAC2-R/PANC-1 % max” value in assay [2] is “no agonist activity; also recorded: No Act”.
